# Assay results published in ChEMBL document CHEMBL3885861, “Open TG-GATES”.
# Species on record: Rattus norvegicus
# Assay: Open TG-GATES - Regimen: Daily Repeat
# Format: toxicity, organism-based, Sprague-Dawley
# Parameters: regimen Daily Repeat, gender Male, age 6 weeks
# Details: in vivo, po, 300 mg/kg, route gavage, dose level Middle; for APTT / Bas / Eos / Fbg / Hb / Ht / Lym / MCH / MCHC / MCV / Mono / Neu / PT / Plat / RBC / Ret / WBC: tissue Blood; for KIDNEY_L / KIDNEY_R / KIDNEY_TOTAL: tissue Kidney; for LIVER: tissue Liver; for A/G / ALP / ALT / AST / BUN / CRE / Ca / Cl / DBIL / GLC / IP / K / LDH / Na / PL / RALB / TBIL / TC / TG / TP / gamma-GTP: tissue Plasma
structure (smiles),measurement,setting,value
CN(C)[C@@H]1C(O)=C(C(N)=O)C(=O)[C@@]2(O)C(O)=C3C(=O)c4c(O)cccc4[C@@](C)(O)[C@H]3C[C@@H]12 [TETRACYCLINE],TERMINAL_BW,"72 h, time 3 day",189.9 g
same,APTT,"72 h, time 3 day",16.3 s
same,Bas,"72 h, time 3 day",0%
same,Eos,"72 h, time 3 day",0.6%
same,Fbg,"72 h, time 3 day",239.2 mg/dL
same,Hb,"72 h, time 3 day",13.6 g/dL
same,Ht,"72 h, time 3 day",40.7%
same,Lym,"72 h, time 3 day",87.4%
same,MCH,"72 h, time 3 day",21.9 pg
same,MCHC,"72 h, time 3 day",33.4%
same,MCV,"72 h, time 3 day",65.7 fL
same,Mono,"72 h, time 3 day",5.6%
same,Neu,"72 h, time 3 day",6%
same,PT,"72 h, time 3 day",12.3 s
same,Plat,"72 h, time 3 day",99.5 x10_4/uL
same,RBC,"72 h, time 3 day",620.2 x10_4/ul
same,Ret,"72 h, time 3 day",5.8%
same,WBC,"72 h, time 3 day",89.4 x10_2/uL
same,KIDNEY_L,"72 h, time 3 day",0.9 g
same,KIDNEY_R,"72 h, time 3 day",0.9 g
same,KIDNEY_TOTAL,"72 h, time 3 day",1.8 g
same,LIVER,"72 h, time 3 day",8.8 g
same,A/G,"72 h, time 3 day",1.9
same,ALP,"72 h, time 3 day",1035.4 IU/L
same,ALT,"72 h, time 3 day",35.6 IU/L
same,AST,"72 h, time 3 day",66.8 IU/L
same,BUN,"72 h, time 3 day",16.2 mg/dL
same,CRE,"72 h, time 3 day",0.6 mg/dL
same,Ca,"72 h, time 3 day",10.9 mg/dL
same,Cl,"72 h, time 3 day",107.2 meq/L
same,DBIL,"72 h, time 3 day",0.01 mg/dL
same,GLC,"72 h, time 3 day",180.6 mg/dL
same,IP,"72 h, time 3 day",9.8 mg/dL
same,K,"72 h, time 3 day",4.8 meq/L
same,LDH,"72 h, time 3 day",122.6 IU/L
same,Na,"72 h, time 3 day",141 meq/L
same,PL,"72 h, time 3 day",147.2 mg/dL
same,RALB,"72 h, time 3 day",3.8 g/dL
same,TBIL,"72 h, time 3 day",0.3 mg/dL
same,TC,"72 h, time 3 day",93.6 mg/dL
same,TG,"72 h, time 3 day",42.6 mg/dL
same,TP,"72 h, time 3 day",5.8 g/dL
same,gamma-GTP,"72 h, time 3 day",1.6 IU/L
same,TERMINAL_BW,"[…], time 7 day",227.9 g
same,TERMINAL_BW,"[…], time 14 day",275.6 g
same,TERMINAL_BW,"[…], time 28 day",341 g
same,APTT,"[…], time 7 day",17.9 s
same,Bas,"[…], time 7 day",0%
same,Eos,"[…], time 7 day",1%
same,Fbg,"[…], time 7 day",238.5 mg/dL
same,Hb,"[…], time 7 day",13.9 g/dL
same,Ht,"[…], time 7 day",41.5%
same,Lym,"[…], time 7 day",85%
same,MCH,"[…], time 7 day",21 pg
same,MCHC,"[…], time 7 day",33.4%
same,MCV,"[…], time 7 day",62.9 fL
same,Mono,"[…], time 7 day",7%
same,Neu,"[…], time 7 day",7.2%
same,PT,"[…], time 7 day",12.1 s
same,Plat,"[…], time 7 day",102 x10_4/uL
same,RBC,"[…], time 7 day",660.2 x10_4/ul
same,Ret,"[…], time 7 day",7.2%
same,WBC,"[…], time 7 day",135.8 x10_2/uL
same,APTT,"[…], time 14 day",16.7 s
same,Bas,"[…], time 14 day",0%
same,Eos,"[…], time 14 day",0.6%
same,Fbg,"[…], time 14 day",224 mg/dL
same,Hb,"[…], time 14 day",14 g/dL
same,Ht,"[…], time 14 day",42.2%
same,Lym,"[…], time 14 day",88.8%
same,MCH,"[…], time 14 day",20.3 pg
same,MCHC,"[…], time 14 day",33.3%
same,MCV,"[…], time 14 day",60.8 fL
same,Mono,"[…], time 14 day",4.8%
same,Neu,"[…], time 14 day",5.8%
same,PT,"[…], time 14 day",11.9 s
same,Plat,"[…], time 14 day",101.9 x10_4/uL
same,RBC,"[…], time 14 day",694 x10_4/ul
same,Ret,"[…], time 14 day",5.3%
same,WBC,"[…], time 14 day",135.4 x10_2/uL
same,APTT,"[…], time 28 day",16.5 s
same,Bas,"[…], time 28 day",0%
same,Eos,"[…], time 28 day",1%
same,Fbg,"[…], time 28 day",222.6 mg/dL
same,Hb,"[…], time 28 day",14.6 g/dL
same,Ht,"[…], time 28 day",43.4%
same,Lym,"[…], time 28 day",89.4%
same,MCH,"[…], time 28 day",19 pg
same,MCHC,"[…], time 28 day",33.6%
same,MCV,"[…], time 28 day",56.6 fL
same,Mono,"[…], time 28 day",3%
same,Neu,"[…], time 28 day",7%
same,PT,"[…], time 28 day",11.8 s
same,Plat,"[…], time 28 day",94.9 x10_4/uL
same,RBC,"[…], time 28 day",766.8 x10_4/ul
same,Ret,"[…], time 28 day",2.7%
same,WBC,"[…], time 28 day",147 x10_2/uL
same,KIDNEY_L,"[…], time 7 day",1 g
same,KIDNEY_R,"[…], time 7 day",1 g
same,KIDNEY_TOTAL,"[…], time 7 day",2 g
same,KIDNEY_L,"[…], time 14 day",1.1 g
same,KIDNEY_R,"[…], time 14 day",1.1 g
same,KIDNEY_TOTAL,"[…], time 14 day",2.2 g
same,KIDNEY_L,"[…], time 28 day",1.3 g
same,KIDNEY_R,"[…], time 28 day",1.2 g
same,KIDNEY_TOTAL,"[…], time 28 day",2.5 g
same,LIVER,"[…], time 7 day",10.8 g
same,LIVER,"[…], time 14 day",11.8 g
same,LIVER,"[…], time 28 day",13.2 g
same,A/G,"[…], time 7 day",2
same,ALP,"[…], time 7 day",1076.4 IU/L
same,ALT,"[…], time 7 day",38.2 IU/L
same,AST,"[…], time 7 day",69 IU/L
same,BUN,"[…], time 7 day",20.2 mg/dL
same,CRE,"[…], time 7 day",0.6 mg/dL
same,Ca,"[…], time 7 day",11.2 mg/dL
same,Cl,"[…], time 7 day",106.6 meq/L
same,DBIL,"[…], time 7 day",0.004 mg/dL
same,GLC,"[…], time 7 day",176 mg/dL
same,IP,"[…], time 7 day",9.6 mg/dL
same,K,"[…], time 7 day",5.5 meq/L
same,LDH,"[…], time 7 day",142 IU/L
same,Na,"[…], time 7 day",140.4 meq/L
same,PL,"[…], time 7 day",157.6 mg/dL
same,RALB,"[…], time 7 day",3.9 g/dL
same,TBIL,"[…], time 7 day",0.3 mg/dL
same,TC,"[…], time 7 day",82.6 mg/dL
same,TG,"[…], time 7 day",87.6 mg/dL
same,TP,"[…], time 7 day",5.9 g/dL
same,gamma-GTP,"[…], time 7 day",1 IU/L
same,A/G,"[…], time 14 day",2
same,ALP,"[…], time 14 day",1009.2 IU/L
same,ALT,"[…], time 14 day",36.8 IU/L
same,AST,"[…], time 14 day",61.6 IU/L
same,BUN,"[…], time 14 day",20.8 mg/dL
same,CRE,"[…], time 14 day",0.5 mg/dL
same,Ca,"[…], time 14 day",11.1 mg/dL
same,Cl,"[…], time 14 day",103.8 meq/L
same,DBIL,"[…], time 14 day",0.006 mg/dL
same,GLC,"[…], time 14 day",178.2 mg/dL
same,IP,"[…], time 14 day",8.6 mg/dL
same,K,"[…], time 14 day",4.8 meq/L
same,LDH,"[…], time 14 day",88.6 IU/L
same,Na,"[…], time 14 day",142.4 meq/L
same,PL,"[…], time 14 day",157 mg/dL
same,RALB,"[…], time 14 day",3.9 g/dL
same,TBIL,"[…], time 14 day",0.3 mg/dL
same,TC,"[…], time 14 day",72.4 mg/dL
same,TG,"[…], time 14 day",111.4 mg/dL
same,TP,"[…], time 14 day",6 g/dL
same,gamma-GTP,"[…], time 14 day",1.2 IU/L
same,A/G,"[…], time 28 day",1.8
same,ALP,"[…], time 28 day",813.4 IU/L
same,ALT,"[…], time 28 day",29 IU/L
same,AST,"[…], time 28 day",62.4 IU/L
same,BUN,"[…], time 28 day",19.4 mg/dL
same,CRE,"[…], time 28 day",0.6 mg/dL
same,Ca,"[…], time 28 day",10.9 mg/dL
same,Cl,"[…], time 28 day",107 meq/L
same,DBIL,"[…], time 28 day",0.026 mg/dL
same,GLC,"[…], time 28 day",173.2 mg/dL
same,IP,"[…], time 28 day",7.4 mg/dL
same,K,"[…], time 28 day",4.2 meq/L
same,LDH,"[…], time 28 day",73.8 IU/L
same,Na,"[…], time 28 day",141 meq/L
same,PL,"[…], time 28 day",146 mg/dL
same,RALB,"[…], time 28 day",3.8 g/dL
same,TBIL,"[…], time 28 day",0.3 mg/dL
same,TC,"[…], time 28 day",75.2 mg/dL
same,TG,"[…], time 28 day",127 mg/dL
same,TP,"[…], time 28 day",6 g/dL
same,gamma-GTP,"[…], time 28 day",1 IU/L
